# Patent US20230278972A1, “SUBSTITUTED HALOALKYL SULFONANILIDE HERBICIDES” (FMC Corporation, priority 2020, published 2023)
# What was measured:
# Assay type in all cases: in vivo
# [1] = system: blackgrass (Alopecurus myosuroides); assay: Test A1 preemergence, blackgrass
# Summary of the method: (§1)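 Herbicidal response was scored on plants treated either preemergence, by directed spray onto soil of a loam–sand blend after sowing, or postemergence on potted plants at the one- to two-leaf stage, 2–10 cm high. Test chemicals were carried in a non-phytotoxic solvent mix with surfactant.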
# corn (Zea mays) [2] = assay: Test A1 preemergence, corn
# Summary of the method: as §1
# [3] = system: Foxtail, Giant (giant foxtail, Setaria faberi); assay: Test A1 preemergence, Foxtail, Giant
# Summary of the method: as §1
# [4] = system: goosegrass (Eleusine indica); assay: Test A1 preemergence, goosegrass
# Summary of the method: as §1
# kochia (Bassia scoparia) [5] = assay: Test A1 preemergence, kochia
# Summary of the method: as §1
# [6] = system: Oat, Wild (wild oat, Avena fatua); assay: Test A1 preemergence, Oat, Wild
# Summary of the method: as §1
# [7] = system: Pigweed, Palmer (palmer amaranth, palmer pigweed, Amaranthus palmeri); assay: Test A1 preemergence, Pigweed, Palmer
# Summary of the method: as §1
# [8] = system: ragweed (common ragweed, Ambrosia artemisiifolia); assay: Test A1 preemergence, ragweed
# Summary of the method: as §1
# [9] = system: Ryegrass, Italian (Italian ryegrass, Lolium multiflorum); assay: Test A1 preemergence, Ryegrass, Italian
# Summary of the method: as §1
# soybean (Glycine max) [10] = assay: Test A1 preemergence, soybean
# Summary of the method: as §1
# [11] = system: wheat (Triticum aestivum); assay: Test A1 preemergence, wheat
# Summary of the method: as §1
# corn (Zea mays) [12] = assay: Test A1 postemergence, corn; conditions: Postemergence
# Summary of the method: as §1
# [13] = system: Foxtail, Giant (giant foxtail, Setaria faberi); assay: Test A1 postemergence, Foxtail, Giant; conditions: Postemergence
# Summary of the method: (§2)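 Both timings started from seed in a loam-sand blend. Preemergence pots got a directed soil application immediately; postemergence pots were sprayed when seedlings had one or two leaves and stood 2–10 cm. Each compound was prepared in a non-phytotoxic solvent plus surfactant.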
# [14] = system: goosegrass (Eleusine indica); assay: Test A1 postemergence, goosegrass; conditions: Postemergence
# Summary of the method: as §2
# kochia (Bassia scoparia) [15] = assay: Test A1 postemergence, kochia; conditions: Postemergence
# Summary of the method: as §2
# [16] = system: Oat, Wild (wild oat, Avena fatua); assay: Test A1 postemergence, Oat, Wild; conditions: Postemergence
# Summary of the method: as §1
# [17] = system: Pigweed, Palmer (palmer amaranth, palmer pigweed, Amaranthus palmeri); assay: Test A1 postemergence, Pigweed, Palmer; conditions: Postemergence
# Summary of the method: as §1
# [18] = system: ragweed (common ragweed, Ambrosia artemisiifolia); assay: Test A1 postemergence, ragweed; conditions: Postemergence
# Summary of the method: as §1
# [19] = system: Ryegrass, Italian (Italian ryegrass, Lolium multiflorum); assay: Test A1 postemergence, Ryegrass, Italian; conditions: Postemergence
# Summary of the method: as §2
# soybean (Glycine max) [20] = assay: Test A1 postemergence, soybean; conditions: Postemergence
# Summary of the method: as §2
# [21] = system: wheat (Triticum aestivum); assay: Test A1 postemergence, wheat; conditions: Postemergence
# Summary of the method: as §2
# [22] = system: galium (catchweed bedstraw, Galium aparine); assay: Test A1 postemergence, galium; conditions: Postemergence
# Summary of the method: as §2
# [23] = system: horseweed (Erigeron canadensis); assay: Test A1 postemergence, horseweed; conditions: Postemergence
# Excerpt: Seeds of plant species selected from, blackgrass (Alopecurus myosuroides), corn (Zea mays), Foxtail, Giant (giant foxtail, Setaria faberi), goosegrass (Eleusine indica), kochia (Bassia scoparia), Oat, Wild (wild oat, Avena fatua), Pigweed, Palmer (palmer amaranth, palmer pigweed, Amaranthus palmeri), ragweed (common ragweed, Ambrosia artemisiifolia), Ryegrass, Italian (Italian ryegrass, Lolium multiflorum), soybean (Glycine max), and wheat (Triticum aestivum) were planted into a blend of loam soil and sand and treated preemergence with a directed soil spray using test chemicals formulated in a non-phytotoxic solvent mixture which included a surfactant. At the same time, plants selected from these crop and weed species and also galium (catchweed bedstraw, Galium aparine) and horseweed (Erigeron canadensis) were planted in pots containing the same blend of loam soil and sand and treated with postemergence applications of test chemicals formulated in the same manner. Plants ranged in height from 2 to 10 cm and were in the one- to two-leaf stage for the postemergence treatment. […] A dash (-) response means no test result.
# [24] = system: barnyardgrass (Echinochloa crus-galli); assay: Test B1 flooded paddy test, barnyardgrass; conditions: 250 g ai/ha, Flood, applied to paddy water, 2-leaf stage, visually evaluated after 10 to 14 days
# Excerpt: (§3) A dash (-) response means no test result.
# [25] = system: ducksalad (Heteranthera limosa); assay: Test B1 flooded paddy test, ducksalad; conditions: 250 g ai/ha, Flood, applied to paddy water, 2-leaf stage, visually evaluated after 10 to 14 days
# Excerpt: as §3
# rice (Oryza sativa) = assay: Test B1 flooded paddy test, rice; conditions: 250 g ai/ha, Flood, applied to paddy water, 2-leaf stage, visually evaluated after 10 to 14 days
# Excerpt: as §3
# [26] = 31 g ai/ha, 0 to 100 scale (0 no effect, 100 complete control)
# [27] = 125 g ai/ha, 0 to 100 scale, 0 no effect, 100 complete control
# [28] = 31 g ai/ha, 0 to 100 scale (0 no effect, 100 complete control), 10 days
smiles,measurement,setting,value
Cc1cc(F)c(NS(=O)(=O)C(F)(F)F)cc1C1=NOC2(CCCC2)C1 [Compound 303],"Plant response rating, Blackgrass",[1]; [26],0
same,"Plant response rating, Blackgrass",[1]; [27],40
same,"Plant response rating, Corn",corn (Zea mays) [2]; [26],0
same,"Plant response rating, Corn",corn (Zea mays) [2]; [27],90
same,"Plant response rating, Foxtail, Giant",[3]; [26],80
same,"Plant response rating, Foxtail, Giant",[3]; [27],100
same,"Plant response rating, Goosegrass",[4]; [26],50
same,"Plant response rating, Goosegrass",[4]; [27],100
same,"Plant response rating, Kochia",kochia (Bassia scoparia) [5]; [26],20
same,"Plant response rating, Kochia",kochia (Bassia scoparia) [5]; [27],20
same,"Plant response rating, Oat, Wild",[6]; [26],20
same,"Plant response rating, Oat, Wild",[6]; [27],60
same,"Plant response rating, Pigweed, Palmer",[7]; [26],20
same,"Plant response rating, Pigweed, Palmer",[7]; [27],20
same,"Plant response rating, Ragweed",[8]; [26],0
same,"Plant response rating, Ragweed",[8]; [27],0
same,"Plant response rating, Ryegrass, Italian",[9]; [26],50
same,"Plant response rating, Ryegrass, Italian",[9]; [27],100
same,"Plant response rating, Soybean",soybean (Glycine max) [10]; [26],0
same,"Plant response rating, Soybean",soybean (Glycine max) [10]; [27],0
same,"Plant response rating, Wheat",[11]; [26],30
same,"Plant response rating, Wheat",[11]; [27],90
same,"Plant response rating, Corn",corn (Zea mays) [12]; [28],0
same,"Plant response rating, Corn","corn (Zea mays) [12]; 125 g ai/ha, 0 to 100 scale",40
same,"Plant response rating, Foxtail, Giant",[13]; [28],30
same,"Plant response rating, Foxtail, Giant","[13]; 125 g ai/ha, 0 to 100 scale",80
same,"Plant response rating, Goosegrass",[14]; [28],0
same,"Plant response rating, Goosegrass","[14]; 125 g ai/ha, 0 to 100 scale",70
same,"Plant response rating, Kochia",kochia (Bassia scoparia) [15]; [28],0
same,"Plant response rating, Kochia","kochia (Bassia scoparia) [15]; 125 g ai/ha, 0 to 100 scale",60
same,"Plant response rating, Oat, Wild",[16]; [28],0
same,"Plant response rating, Oat, Wild","[16]; 125 g ai/ha, 0 to 100 scale",20
same,"Plant response rating, Pigweed, Palmer",[17]; [28],0
same,"Plant response rating, Pigweed, Palmer","[17]; 125 g ai/ha, 0 to 100 scale",20
same,"Plant response rating, Ragweed",[18]; [28],30
same,"Plant response rating, Ragweed","[18]; 125 g ai/ha, 0 to 100 scale",80
same,"Plant response rating, Ryegrass, Italian",[19]; [28],0
same,"Plant response rating, Ryegrass, Italian","[19]; 125 g ai/ha, 0 to 100 scale",60
same,"Plant response rating, Soybean",soybean (Glycine max) [20]; [28],30
same,"Plant response rating, Soybean","soybean (Glycine max) [20]; 125 g ai/ha, 0 to 100 scale",50
same,"Plant response rating, Wheat",[21]; [28],0
same,"Plant response rating, Wheat","[21]; 125 g ai/ha, 0 to 100 scale",50
same,"Plant response rating, Galium",[22]; [28],60
same,"Plant response rating, Galium","[22]; 125 g ai/ha, 0 to 100 scale",90
same,"Plant response rating, Horseweed",[23]; [28],0
same,"Plant response rating, Horseweed","[23]; 125 g ai/ha, 0 to 100 scale",70
same,"Plant response rating, Barnyardgrass (0 to 100 scale, 0 is no effect, 100 is complete control)",[24],0
same,"Plant response rating, Ducksalad (0 to 100 scale, 0 is no effect, 100 is complete control)",[25],0
same,"Plant response rating, Rice (0 to 100 scale, 0 is no effect, 100 is complete control)",rice (Oryza sativa),0
